Experimental findings from patent publication US6545053B1, “Tricyclic compounds and drug compositions containing same” (Asahi Kasei Kogyo Kabushiki Kaisha, priority 1996, dated 2003) are described below.

Counter-ions that a name gives are not always drawn. Like-named read-outs stand apart in the source and are kept apart here.

The test system of series [1] is male ddy mice. Kind of series: Blood sugar decreasing effect in glucose-loaded mice. The format is in vivo. Particulars: glucose 2 g/kg s.c., after one hour. Here is the method:
Blood Sugar Decreasing Effect and Lipolytic Effect Male ddy mice (supplied from the firm Nippon Charles Liver) of 6 weeks age were subcutaneously administered with glucose in a dose of 2 g/kg. The animals were also treated with either one of test compounds via oral or intraperitoneal administration in a dose of 0.1 ml per 10 grams of body weight. After one hour, blood sample was taken from abdominal aorta, from which serum was separated and served as the sample. Blood Sugar Decreasing Effect The samples prepared as above were analyzed for the serum glucose concentration by Auto analyzer (SUPER Z of the firm M. C. Medical). For the analyzer kit, Glucose II HA TEST WAKO (of the firm Wako Pure Chemical) was used. % decrease in blood sugar=[(A−B)/(A−C)]×100 in which A represents the glucose concentration upon being loaded with glucose, B represents the glucose concentration after administration of the compound and C is the usual level of the glucose concentration. […] Therefore, it was proven that the compound according to the present invention is effective as a medicament for therapeutic and preventive treatment of diabetes.

The next series deals with T1, human β3 (Homo sapiens, UniProt P13945).
T1 construct: And then full length of human β3 gene was cloned using this fragment as a probe; expressed in transfected cells; host or cells: CHO cells (Chinese hamster ovary), pcDNA3 vector
T1 sequence (P13945 whole entry, the tested form may be a part): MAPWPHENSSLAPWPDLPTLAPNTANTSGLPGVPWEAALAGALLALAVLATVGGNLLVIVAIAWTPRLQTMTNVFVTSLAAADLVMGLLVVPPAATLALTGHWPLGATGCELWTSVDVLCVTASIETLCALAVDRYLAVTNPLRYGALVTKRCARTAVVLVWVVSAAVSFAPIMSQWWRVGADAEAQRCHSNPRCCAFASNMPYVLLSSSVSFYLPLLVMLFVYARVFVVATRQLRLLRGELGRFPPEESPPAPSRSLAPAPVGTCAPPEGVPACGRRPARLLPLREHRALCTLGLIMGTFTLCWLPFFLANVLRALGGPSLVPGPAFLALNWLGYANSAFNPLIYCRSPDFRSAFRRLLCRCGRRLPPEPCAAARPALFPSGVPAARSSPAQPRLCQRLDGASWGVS
The series can be described thus: Human β3-agonist activity (cAMP in CHO cells transfected with human β3 gene). Particulars: for Emax: CHO, read-out: Intrinsic activity (%). The format is cell-based.

Series [2] concerns male ddy mice. Kind of series: Lipolytic effect in mice (serum free fatty acid). The format is in vivo. As for the experimental part: Blood Sugar Decreasing Effect and Lipolytic Effect Male ddy mice (supplied from the firm Nippon Charles Liver) of 6 weeks age were subcutaneously administered with glucose in a dose of 2 g/kg. The animals were also treated with either one of test compounds via oral or intraperitoneal administration in a dose of 0.1 ml per 10 grams of body weight. After one hour, blood sample was taken from abdominal aorta, from which serum was separated and served as the sample. Lipolytic Effect Amount of free fatty acid in the samples was determined using NEFA HA TEST WAKO (of the firm Wako Pure Chemical). […] Therefore, it was shown that they are useful as medicament for preventive and therapeutic treatment of hyperlipemia and for therapeutic treatment of obesity.

For the next series, the system named is canine adipocytes. The series can be described thus: Lipolytic activity in canine fatty cell (glycerol release). The format is cell-based, dogs. Particulars: Canis lupus familiaris, Adipocyte; for EC50: 1 h, glycerol release, canine adipocytes, read-out: ED50 (the source's name); for Emax: read-out: Intrinsic activity (%). As for the experimental part: Lipolytic Activity in Canine Fatty Cell
Adipose tissues in the omentum were collected from dogs and minced and washed. Krebs-Ringer buffer solution containing 1 mg/ml Collagenase (Sigma) and 1% of bovine serum albumin was added in an amount of 3 ml per one gram of the tissue. These cells were then incubated at 37° C. for 30 minutes with shaking and then undigested tissues were removed with a nylon filter. The resulting adipocytes were washed four times with Krebs-Ringer buffer, and then the concentration of cells was diluted to 2×10^5/ml with Krebs-Ringer buffer solution containing 4% of bovine serum albumin. These cells were transferred to Eppendorf tubes each in an amount of 300 μl.
Each 300 μl of a culture medium containing the test compounds were added to these tubes and was held at 37° C. for 1 hour whith shaking. Stimulation was stoped by cooling with ice. After centrifugation, the adipocytes were taken off with an aspirator, whereupon the glycerol was determined using F-KIT GLTCEROL (Behringer-Manheim).

The subject of series [3] is male ddy mice. Kind of series: Toxicity test in mice. The format is in vivo. The following applies: dose of 100 mg/kg; 8 mice. As for the experimental part: The compounds of Examples 7 and 31 were administered to 6 week age male ddy mice (supplied from the firm Nippon Charles Liver) at a dose of 100 mg/kg.

As for `CS(=O)(=O)Nc1cc(C(O)CNCCOc2ccc3c(c2)[nH]c2ccccc23)ccc1O.Cl` (racemic) [Example 2, (±)-N-[5-[2-[2-(9H-Carbazol-2-yloxy)ethylamino]-1-hydroxyethyl]-2-hydroxyphenyl]methanesulfonamide Hydrochloride], the “% decrease in blood sugar” value in the series with male ddy mice [1] (intraperitoneal administration) worked out at 77.1%. Besides, the EC50 was 0.18 nM at human β3 and 56 nM in the series on canine adipocytes. Further, the Emax was determined as 120% on human β3 and 82% in the series with canine adipocytes. In the series with male ddy mice [2] (intraperitoneal administration of 10 mg/kg), the “increase of free fatty acid” value is given as 67.2%.
For the compound `CS(=O)(=O)Nc1cccc(C(O)CNCCOc2ccc3c(c2)[nH]c2ccccc23)c1.Cl` (racemic) [Example 7, (±)-N-[3-[2-[2-(9H-Carbazol-2-yloxy)ethylamino]-1-hydroxyethyl]phenyl]methanesulfonamide Hydrochloride], the fatal cases entry with male ddy mice [3] is listed as “no fatal case”. Also, at human β3, the EC50 is 18 nM and the Emax came to 95%. The “increase of free fatty acid” value with male ddy mice [2] (oral administration of 100 mg/kg) is recorded as 47.7%. For the same compound, in the series with canine adipocytes, the EC50 amounted to 1200 nM and the Emax stood at 90%.
On to `OC(CNCCOc1ccc2c(c1)[nH]c1ccccc12)c1ccccc1` (racemic) [Example 31, (±)-2-N-[2-(9H-Carbazol-2-yloxy)ethyl]amino]-1-phenyethanol Hydrochloride], for which the fatal cases result in the series on male ddy mice [3] was “no fatal case”. Further, the “% decrease in blood sugar” value in the series on male ddy mice [1] (oral administration) stood at 34.5%. The Emax on human β3 turned out to be 100%; in the series on canine adipocytes, 103%. Besides, the EC50 turned out to be 2200 nM at human β3 (cAMP, CHO cells with human β3, read-out: ED50 (the source's name)) and 7700 nM in the series on canine adipocytes. Besides, the “increase of free fatty acid” value in the series with male ddy mice [2] (oral administration of 30 mg/kg) came out at 32.4%.
